Series [1] is described as follows: Cataleptic activity (Courvoisier's method). Conditions: in vivo, sc, rat. The method, then: According to the Courvoisier's method (Courvoisier, S, Durcot, R. & Jolou, L, (1957), Psychotropic drugs (Ed. Garattini, S and Ghetti, V.), p. 373, Else vier Publishing Company, Amsterdam, London, New York, Princeton), the four limbs of a rat were placed on four rubber stoppers and when the rat could maintain the same pose for 30 seconds, the rat was determined to be positive. The catalepsy was measured every 30 minutes till 240 minutes after the subcutaneous administration of the sample. The sample that produced a positive response in rat even once was determined to be positive in the cataleptic test. From the relation between the positive response and the amount of the sample, ED50 (mg/kg) was determined.

Series [2] deals with emesis induced by apomorphine. Nature of the series: Antiemetic activity, oral (apomorphine-induced emesis). Format: in vivo, dog. Particulars: for ED50: Canis lupus familiaris, po, dog, p.o. in capsules with lactose, 90 min before apomorphine 0.1 mg/kg s.c., Table II; for Activity efficiency (ED50 p.o/ED50 s.c): antiemetic ED50, dog. The method, then:
2. Oral administration: Each of the test samples was mixed with lactose and was filled in capsules. The capsules were orally administered to a dog, 0.1 mg./kg. of apomorphine was administered to the dog by subcutaneous injection after 90 minutes, and then the frequency of emesis was measured within 30 minutes after the apomorphine injection. (Each dog was used only once.) The drugs were evaluated by ED50 values in the same way as described in Experiment I-a.

Another series is described as follows: in vivo. Conditions: for selectivity ratio: LD50 mouse i.v. / antiemetic ED50 dog s.c., x 1/1000, Table I, read-out: Safety margin (LD50/ED50); for LD50 at 168 h: iv, mouse, i.v. tail injection, mortality after one week, Table I, read-out: Toxicity LD50. The protocol:
Each of the test samples was injected intravenously to a mouse in the tail portion at a rate of 0.1 ml./10 g./10 sec. by an up and down method. The mortality rate after one week was checked and from the relation between the amount of the sample used and the mortality rate, LD50 (mg/kg) was determined.

The test system of series [3] is emesis induced by apomorphine. Briefly: Antiemetic activity, subcutaneous (apomorphine-induced emesis). Format: in vivo, dog. Particulars: for ED50: Canis lupus familiaris, sc, read-out: Antiemetic activity ED50 (s.c); for Antiemetic activity ED50 (s.c): Table II. The protocol:
Each of the test samples was administered to a dog by subcutaneous injection; then 0.1 mg./kg. of apomorphine was administered to a dog by subcutaneous injection after 30 minutes, and the frequency of emesis within 30 minutes after the injection was measured. (Each dog was used only once). From the frequency of emesis, the inhibition rate was calculated and from the relation between the amount of the sample used and the inhibition rate, ED50 (μg/kg.) was determined. Drug activity was assessed by ED50 values.
1. Subcutaneous administration:
Same as Experiment (I-a).

In series [4] the test system is spontaneous motility of the stomach. Nature of the series: Effect of stimulating gastric motility (ballon method). It counts as in vivo. Conditions: anesthetized dog, i.v.; Table III. The method, then: After anesthetizing a dog which had fasted overnight by intravenously injecting 30 mg./kg. of pentobarbital, each of the test samples was injected intravenously and then the spontaneous motility of the stomach was recorded by means of a polygraph (RM-150, made by Nihon Koden K. K.) according to the ballon method (Jap. J. Smooth Muscle Res., 2, 15(1966)). In addition, the effect of stimulating the gastric motility was denoted as (+) and (++) respectively when 10 mg./kg. and 5 mg./kg. each of the sample was intervenously injected and the stimulated motility of the stomach continued longer than 20 minutes.

Another series deals with emesis. Conditions: in vivo; cited from earlier work.
The test system of the next series is catalepsy. Particulars: in vivo; cited from earlier work.
The subject of the next series is gastric motility. Conditions: in vivo; cited from earlier work.
Where [5] appears, read: s.c., every 30 min till 240 min, symbol of Table II, read-out: Catalepsy ED50 (not measurable, symbol).
[6] abbreviates: dog, s.c., 30 min before apomorphine 0.1 mg/kg s.c., Table I.
Setting [7] is: dog, s.c., 30 min before apomorphine 0.1 mg/kg s.c.

Read-outs that look alike come from different tables or passages of the source.

With `CCN1CCCC1CNC(=O)c1nc(Cl)c(N)nc1OC` (centres unmarked) [N-(1-ethylpyrrolidin-2-ylmethyl)-5-amino-6-chloro-3-methoxypyrazine-2-carboxamide], the ED50 at 4 h in series [1] (setting [5]) was more than 100 mg/kg. For the same molecule, in series [2], the 50% effect level (ED50) was put at a dose of 0.004 mg/kg and the “Activity efficiency (ED50 p.o/ED50 s.c)” value was determined as 2.0. In addition, in “in vivo”, the selectivity ratio worked out at 45700 and the LD50 at 168 h is 91.3 mg/kg. For the same molecule, the ED50 in series [3] (setting [6]) amounted to 0.002 mg/kg.

Regarding `CCN1CCCC1CNC(=O)c1nc(Cl)cnc1OC` (centres unmarked) [N-(1-ethylpyrrolidin-2-ylmethyl)-5-chloro-2-methoxypyrazine-3-carboxamide], in the series “in vivo”, the selectivity ratio amounted to 8500 and the median lethal dose (LD50) at 168 h is 170 mg/kg. The ED50 in series [3] (setting [6]) amounted to 0.02 mg/kg.

Take `CCNc1nc(OC)c(C(=O)NCC2CCCN2CC)nc1Cl` (centres unmarked) [N-(1-ethylpyrrolidin-2-ylmethyl)-6-chloro-5-ethylamino-3-methoxypyrazine-2-carboxamide]: the ED50 at 4 h in series [1] (setting [5]) is more than 100 mg/kg. For the same molecule, in series [2], the 50% effect level (ED50) was put at a dose of 0.006 mg/kg and the “Activity efficiency (ED50 p.o/ED50 s.c)” value was 2.3. Moreover, in “in vivo”, the selectivity ratio is 23500 and the LD50 at 168 h amounted to 61.1 mg/kg. The 50% effective dose (ED50) in series [3] (setting [6]) came to 0.0026 mg/kg. Also, in series [3] (setting [7]), the “Antiemetic activity ED50 (s.c)” value turned out to be 2.6 µg/kg.

For the molecule `CCNc1nc(OC)c(C(=O)NCC2CCCN2C)nc1Cl` (centres unmarked) [N-(1-methylpyrrolidin-2-ylmethyl)-6-chloro-5-ethylamino-3-methoxypyrazine-2-carboxamide], in “in vivo”, the selectivity ratio came out at 15000 and the LD50 at 168 h was determined as 45 mg/kg. In addition, in series [3] (setting [6]), the ED50 turned out to be 0.003 mg/kg.

`CCOc1nc(N)c(Cl)nc1C(=O)NCCN(CC)CC` [N-(2-diethylaminoethyl)-5-amino-6-chloro-3-ethoxypyrazine-2-carboxamide]: in “in vivo”, the selectivity ratio worked out at 6010 and the LD50 at 168 h came out at 72.1 mg/kg. Moreover, the 50% effective dose (ED50) in series [3] (setting [6]) turned out to be 0.012 mg/kg.

`CCN(CC)CCNC(=O)c1nc(Cl)c(N)nc1OC` [N-(2-diethylaminoethyl)-5-amino-6-chloro-3-methoxypyrazine-2-carboxamide]: the ED50 at 4 h in series [1] (setting [5]) is more than 100 mg/kg. In addition, in series [2], the ED50 came to 0.07 mg/kg and the “Activity efficiency (ED50 p.o/ED50 s.c)” value was 5.8. In the series “in vivo”, the selectivity ratio worked out at 12500 and the LD50 at 168 h was 150 mg/kg. In series [3] (setting [6]), the ED50 was 0.012 mg/kg. The “Antiemetic activity ED50 (s.c)” value in series [3] (setting [7]) worked out at 12 µg/kg.

On to `CCN(CC)CCNC(=O)c1nc(Cl)c(Nc2ccccc2)nc1OC` [N-(2-diethylaminoethyl)-5-anilino-6-chloro-3-methoxypyrazine-2-carboxamide], for which the “Effect of stimulating gastric motility” value in series [4] is “+ to ++”.

Consider `CCN(CC)CCNC(=O)c1nc(Cl)c(NC)nc1OC` [N-(2-diethylaminoethyl)-6-chloro-3-methoxy-5-methylaminopyrazine-2-carboxamide], for which, in “in vivo”, the selectivity ratio was 9100 and the LD50 at 168 h was 91 mg/kg. Also, the ED50 in series [3] (setting [6]) came out at 0.01 mg/kg.

Take `CCNc1nc(OC)c(C(=O)NCCN(CC)CC)nc1Cl` [N-(2-diethylaminoethyl)-6-chloro-5-ethylamino-3-methoxypyrazine-2-carboxamide]: the ED50 at 4 h in series [1] (setting [5]) was more than 100 mg/kg. Moreover, in series [4], the “Effect of stimulating gastric motility” value is recorded as “+ to ++”. Moreover, in series [2], the median effective dose (ED50) is 0.065 mg/kg and the “Activity efficiency (ED50 p.o/ED50 s.c)” value stood at 3.3. Moreover, in the series “in vivo”, the selectivity ratio was found to be 4550 and the LD50 at 168 h came to 91 mg/kg. Besides, the ED50 in series [3] (setting [6]) was 0.02 mg/kg. Also, in series [3] (setting [7]), the “Antiemetic activity ED50 (s.c)” value stood at 20 µg/kg.

As for `CN(C)CCCN1c2ccccc2Sc2ccc(Cl)cc21` [chlorpromazine, reference compound], in series [1] (s.c., every 30 min till 240 min, Table II, read-out: Catalepsy ED50), the ED50 at 4 h was determined as 7 mg/kg. In addition, in series [2], the ED50 amounted to 2 mg/kg and the “Activity efficiency (ED50 p.o/ED50 s.c)” value turned out to be 8.0. Moreover, in the series “in vivo”, the selectivity ratio stood at 290 and the LD50 at 168 h was 71.4 mg/kg. Further, the ED50 in series [3] worked out at 0.25 mg/kg. For the same molecule, the “Antiemetic activity ED50 (s.c)” value in series [3] (setting [7]) was determined as 250 µg/kg.

Molecule `CCN(CC)CCNC(=O)c1cc(Cl)c(N)cc1OC` [metoclopramide, N-(diethylaminoethyl)-4-amino-5-chloro-2-methoxybenzamide, reference compound] showed an ED50 at 4 h in series [1] of 45 mg/kg. Besides, the “Antiemetic activity, literature” value with emesis is “stronger antiemetic activity than chlorpromazine”. Also, the “Catalepsy, literature” value in the series on catalepsy is on record as “produces catalepsy as a side effect”. In addition, the values for the ED50 in series [2] and in series [3] (setting [6]) were 0.13 mg/kg and 0.03 mg/kg, respectively. Further, the median lethal dose (LD50) at 168 h in the series “in vivo” is 61 mg/kg. In series [3] (setting [7]), the “Antiemetic activity ED50 (s.c)” value turned out to be 30 µg/kg. Further, in the series with gastric motility, the “Effect on gastric motility, literature” value is “effect of stimulating gastric motility”.

Values taken from patent US4041032A, “Pyrazine derivatives” (priority 1974, dated 1977).
